Test systems include Micrococcus luteus; Staphylococcus aureus; Pasteurella multocida; Listeria innocua; Escherichia coli; Bacillus cereus; Streptococcus uberis; Leuconostoc lactis; Escherichia coli K-12; Bacillus subtilis 168; Bacillus subtilis.
What all share (assay): ≥ marks a high value that may be exact or a test limit, other limits are often not marked, values filed in µg/mL are converted to µM
Experiment [1] relates to Candida albicans ATCC 20032.
Experiment [2] relates to Staphylococcus aureus ATCC 25923.
The subject of experiment [3] is Batrachochytrium dendrobatidis.
Experiment [4] has as its system Escherichia coli ATCC 25922.
In experiment [5] the test system is Staphylococcus aureus NCTC 8325.
The subject of experiment [6] is Staphylococcus epidermidis.
Experiment [7] deals with Pseudomonas aeruginosa PAO1.
Experiment [8] deals with Staphylococcus aureus USA 300.
The subject of experiment [9] is Salmonella enterica subsp. enterica serovar Typhimurium ATCC 14028.
Experiment [10] relates to Bacillus subtilis ATCC 6633.
Experiment [11] deals with Klebsiella pneumoniae ATCC 10031.
In experiment [12] the test system is Staphylococcus aureus TK784.
The test system of experiment [13] is Pseudomonas aeruginosa ATCC 27853.
Experiment [14] deals with Staphylococcus aureus ATCC 6538P.
Experiment [15] relates to Micrococcus luteus ATCC 10240.
Experiment [16] relates to Staphylococcus epidermidis ATCC 12228.
The test system of experiment [17] is Shigella dysenteriae ATCC 9752.
Experiment [18] concerns Klebsiella pneumoniae ATCC 13883.
Experiment [19] concerns Enterococcus faecalis ATCC 29212.
Experiment [20] relates to Streptococcus pyogenes ATCC 19615.

Values after ≈ are worked out from the molar mass of the structure shown.

Experimental findings from DBAASP are described below.

In general, MIC refers to the least concentration at which growth counts as inhibited. A high value points to a need for much substance.

As to `CC[C@H](C)[C@@H]1NC(=O)[C@H](CO)NC(=O)[C@H](CCCCN)NC(=O)[C@H]([C@@H](C)O)NC(=O)[C@H](Cc2c[nH]c3ccccc23)NC(=O)[C@@H](NC(=O)CNC(=O)[C@H](CCCCN)NC(=O)[C@H](CC(C)C)NC(=O)[C@H](C)NC(=O)[C@H](C)N)CSSC[C@@H](C(=O)N[C@@H](CO)C(=O)NCC(=O)N[C@@H](CCCCN)C(=O)N[C@@H](CCCN=C(N)N)C(=O)O)NC(=O)[C@@H]2CCCN2C(=O)[C@H](CCCCN)NC(=O)[C@@H]2CCCN2C(=O)[C@@H]2CCCN2C1=O` [AALKGCWTKSIPPKPCSGKR], the MIC came out at 23.4 µM (≈ 49.8 µg/mL) in [1] and 11.7 µM (≈ 24.9 µg/mL) in experiment [2].
Consider `CC[C@H](C)[C@H](NC(=O)[C@@H](NC(=O)[C@@H]1CCCN1C(=O)[C@H](CC(C)C)NC(=O)[C@@H](N)Cc1ccccc1)[C@@H](C)CC)C(=O)N[C@@H](C)C(=O)N[C@@H](CO)C(=O)N[C@@H](CC(C)C)C(=O)N[C@@H](CC(C)C)C(=O)N[C@@H](CO)C(=O)N[C@@H](CCCCN)C(=O)N[C@@H](CC(C)C)C(=O)N[C@@H](CC(C)C)C(N)=O` [FLPIIASLLSKLL], for which the MIC in experiment [3] was at least 32.2 µM.
For the compound `CC[C@H](C)[C@H](NC(=O)CN)C(=O)N[C@@H](CC(C)C)C(=O)N[C@@H](CO)C(=O)N[C@H](C(=O)N[C@@H](Cc1ccccc1)C(=O)N[C@@H](CCCCN)C(=O)NCC(=O)N[C@@H](CC(C)C)C(=O)N[C@@H](C)C(=O)N[C@@H](CCCCN)C(=O)NCC(=O)N[C@H](C(=O)N[C@@H](C)C(=O)N[C@@H](CCCCN)C(=O)N[C@@H](CC(=O)O)C(=O)N[C@@H](CC(C)C)C(=O)N[C@@H](C)C(=O)NCC(=O)N[C@@H](CC(N)=O)C(=O)N[C@@H](CC(C)C)C(=O)N[C@@H](CC(C)C)C(=O)N[C@@H](CC(=O)O)C(=O)N[C@@H](CCCCN)C(=O)N[C@@H](Cc1ccccc1)C(=O)N[C@@H](CCCCN)C(=O)N[C@H]1CSSC[C@@H](C(=O)O)NC(=O)CNC(=O)[C@H]([C@@H](C)O)NC(=O)[C@H]([C@@H](C)CC)NC(=O)[C@H](CCCCN)NC1=O)C(C)C)[C@@H](C)O` [GILSTFKGLAKGVAKDLAGNLLDKFKCKITGC], the MIC was 25 µM (≈ 82.7 µg/mL) in experiment [3], 7 µM (≈ 23.2 µg/mL) in experiment [4] and 27 µM (≈ 89.3 µg/mL) in experiment [5].
In the case of `CC[C@H](C)[C@H](NC(=O)[C@@H](NC(=O)[C@H](C)NC(=O)[C@H](C)NC(=O)[C@@H](NC(=O)[C@H](CCCCN)NC(=O)[C@H](CCCCN)NC(=O)[C@@H](NC(=O)[C@@H](NC(=O)[C@H](C)NC(=O)[C@H](Cc1ccccc1)NC(=O)[C@H](CC(C)C)NC(=O)CN)C(C)C)[C@@H](C)CC)C(C)C)C(C)C)C(=O)N[C@@H](CCCCN)C(=O)N[C@@H](CCCCN)C(=O)N[C@@H](CC(C)C)C(N)=O` [GLFAVIKKVAAVIKKL], the MIC with Micrococcus luteus is 14.7 µM (≈ 25 µg/mL); in the experiment on Staphylococcus aureus, 14.7 µM (≈ 25 µg/mL); in experiment [6], 1.77 µM (≈ 3 µg/mL); with Pasteurella multocida, at least 58.9 µM; against Listeria innocua it was 7.07 µM (≈ 12 µg/mL); in experiment [3], at least 141 µM. Also, the MIC in the experiment with Escherichia coli was 58.9 µM (≈ 99.9 µg/mL); in the experiment on Bacillus cereus it was at least 58.9 µM; in the experiment on Streptococcus uberis, 7.07 µM (≈ 12 µg/mL); in the experiment with Leuconostoc lactis, 0.883 µM (≈ 1.5 µg/mL).
For the compound `CC(C)[C@H](NC(=O)[C@@H](NC(=O)[C@H](CCCCN)NC(=O)CNC(=O)[C@@H](NC(=O)[C@@H](NC(=O)[C@H](CO)NC(=O)[C@@H](NC(=O)[C@@H](NC(=O)[C@@H]1CCCN1C(=O)[C@@H](NC(=O)[C@@H](NC(=O)CN)C(C)C)C(C)C)C(C)C)C(C)C)C(C)C)C(C)C)C(C)C)C(N)=O` [GVVPVVSVVGKVV], the MIC in experiment [7] is over 100 µM; with Escherichia coli K-12, at least 100 µM; in experiment [8], at least 100 µM; in the experiment on Bacillus subtilis 168, at least 100 µM.
With `CC(C)C[C@H](NC(=O)[C@H](CCCCN)NC(=O)[C@H](CCCCN)NC(=O)[C@H](CC(C)C)NC(=O)[C@H](Cc1c[nH]c2ccccc12)NC(=O)[C@H](CCCCN)NC(=O)[C@H](CC(C)C)NC(=O)[C@H](CC(C)C)NC(=O)[C@H](CCCCN)NC(=O)[C@H](CCCCN)NC(=O)[C@@H](N)CC(C)C)C(N)=O` [LKKLLKWLKKL], the MIC in [9] stood at 2.84 µM (≈ 4 µg/mL); in experiment [10], 1.42 µM (≈ 2 µg/mL); in experiment [11], 1.42 µM (≈ 2 µg/mL); in experiment [12], 11.3 µM (≈ 16 µg/mL); in experiment [13], 5.67 µM (≈ 7.99 µg/mL); in experiment [14], 1.42 µM (≈ 2 µg/mL). For the same compound, the MIC in experiment [4] was 1.42 µM (≈ 2 µg/mL); in [15], 2.84 µM (≈ 4 µg/mL); in experiment [16] it was 1.42 µM (≈ 2 µg/mL); in [17] it was 1.42 µM (≈ 2 µg/mL).
In the case of `CC(C)C[C@H](NC(=O)[C@H](Cc1c[nH]c2ccccc12)NC(=O)[C@H](CCCCN)NC(=O)[C@H](CCCCN)NC(=O)[C@H](CC(C)C)NC(=O)[C@H](Cc1c[nH]c2ccccc12)NC(=O)[C@H](CCCCN)NC(=O)[C@@H](N)CC(C)C)C(=O)N[C@@H](CCCCN)C(N)=O` [LKWLKKWLK], the MIC is over 64.4 µM in experiment [9]; at least 32.2 µM in experiment [10]; at least 64.4 µM in [11]; at least 64.4 µM in experiment [12]; 32.2 µM (≈ 40 µg/mL) in [13]; 8.05 µM (≈ 9.99 µg/mL) in [14]. The MIC in experiment [4] was 32.2 µM (≈ 40 µg/mL); in experiment [15] it was at least 64.4 µM; in experiment [16], 32.2 µM (≈ 40 µg/mL); in experiment [17], at least 64.4 µM.
Consider `CC(C)C[C@H](NC(=O)[C@H](CC(C)C)NC(=O)[C@H](CCCCN)NC(=O)[C@H](CCCCN)NC(=O)[C@H](CC(C)C)NC(=O)[C@H](CC(C)C)NC(=O)[C@H](CCCCN)NC(=O)[C@H](CCCCN)NC(=O)[C@H](CC(C)C)NC(=O)[C@@H](N)Cc1c[nH]c2ccccc12)C(=O)N[C@@H](CCCCN)C(N)=O` [WLKKLLKKLLK], for which the MIC in [9] was 1.42 µM (≈ 2 µg/mL); in experiment [10] it was 1.42 µM (≈ 2 µg/mL); in experiment [11], 1.42 µM (≈ 2 µg/mL); in experiment [12] it was 5.67 µM (≈ 7.99 µg/mL); in experiment [13], 5.67 µM (≈ 7.99 µg/mL); in experiment [14] it was 1.42 µM (≈ 2 µg/mL). The MIC in [4] worked out at 2.84 µM (≈ 4 µg/mL); in experiment [15] it was 2.84 µM (≈ 4 µg/mL); in experiment [16] it was 1.42 µM (≈ 2 µg/mL); in [17], 1.42 µM (≈ 2 µg/mL).
Consider `CC(C)C[C@H](NC(=O)[C@H](CO)NC(=O)[C@H](CCCN=C(N)N)NC(=O)[C@H](CCCCN)NC(=O)[C@@H](NC(=O)[C@@H](NC(=O)CNC(=O)[C@H](CCCN=C(N)N)NC(=O)[C@H](Cc1cnc[nH]1)NC(=O)[C@H](Cc1c[nH]c2ccccc12)NC(=O)[C@H](Cc1ccccc1)NC(=O)[C@H](Cc1cnc[nH]1)NC(=O)[C@H](Cc1ccc(O)cc1)NC(=O)[C@@H](N)Cc1ccc(O)cc1)C(C)C)[C@@H](C)O)C(=O)N[C@@H](CO)C(=O)N1CCC[C@H]1C(=O)N[C@@H](Cc1cnc[nH]1)C(=O)O` [YYHFWHRGVTKRSLSPH], for which the MIC is at least 100 µM in experiment [18]; over 100 µM in experiment [9]; over 100 µM in [19]; at least 100 µM in experiment [20]; over 100 µM in experiment [13]; 30 µM (≈ 65.1 µg/mL) against Escherichia coli. For the same compound, the results for the MIC (with Bacillus subtilis; in experiment [2]) were at least 100 µM and over 100 µM, respectively.
